The record followed here is ChEMBL document CHEMBL5365481, “Design, Synthesis, and Activity Evaluation of Novel Dual-Target Inhibitors with Antifungal and Immunoregulatory Properties” (J Med Chem, 2023).

In brackets after ≈: the same amount, converted by molar mass.

Type in all cases: functional
Assay [1] relates to Pichia kudriavzevii. Description: Antifungal activity against Candida krusei ATCC 6258 assessed as inhibition of fungal growth incubated for 72 hrs by CLSI based liquid medium microdilution method. For orientation: Dilution methods test growth across graded concentrations, often in twofold steps.
Assay [2] concerns Cryptococcus neoformans. Description: Antifungal activity against Cryptococcus neoformans ZKCC 2209 assessed as inhibition of fungal growth incubated for 72 hrs by CLSI based liquid medium microdilution method.
Assay [3] relates to Candida albicans. Description: Antifungal activity against Candida albicans ATCC SC5314 assessed as inhibition of fungal growth incubated for 72 hrs by CLSI based liquid medium microdilution method.
The test system of assay [4] is Candida tropicalis. Nature of the assay: Antifungal activity against Candida tropicalis ATCC 1369 assessed as inhibition of fungal growth incubated for 72 hrs by CLSI based liquid medium microdilution method.
The subject of assay [5] is Aspergillus fumigatus. Nature of the assay: Antifungal activity against Aspergillus fumigatus KM8001 assessed as inhibition of fungal growth incubated for 72 hrs by CLSI based liquid medium microdilution method.
Assay [6] relates to Candida albicans. Nature of the assay: Antifungal activity against fluconazole-resistant Candida albicans 17# assessed as inhibition of fungal growth incubated for 72 hrs by CLSI based liquid medium microdilution method.
Assay [7] deals with Candida albicans. Nature of the assay: Antifungal activity against fluconazole-resistant Candida albicans 901 assessed as inhibition of fungal growth incubated for 72 hrs by CLSI based liquid medium microdilution method.
Assay [8] deals with Candida albicans. Nature of the assay: Antifungal activity against fluconazole-resistant Candida albicans CaR assessed as inhibition of fungal growth incubated for 72 hrs by CLSI based liquid medium microdilution method.
The test system of assay [9] is Candida albicans. Nature of the assay: Antifungal activity against fluconazole-resistant Candida albicans 904 assessed as inhibition of fungal growth incubated for 72 hrs by CLSI based liquid medium microdilution method.
Assay [10] has as its system Candida albicans. Description: Antifungal activity against fluconazole-resistant Candida albicans 632 assessed as inhibition of fungal growth incubated for 72 hrs by CLSI based liquid medium microdilution method.

Regarding `O=C(NCc1ccccc1)c1nc(-n2cncn2)c2cc(Cl)ccc2n1`, the MIC50 (commonly an inhibitory concentration at the 50% level, which refers to growth in some studies and to a panel of isolates in others) in [1] is 0.5 µg/mL (≈ 1.37 µM); in [2], 1 µg/mL (≈ 2.74 µM); in [3] it was 1 µg/mL (≈ 2.74 µM); in assay [4] it was 1 µg/mL (≈ 2.74 µM); in assay [5], 2 µg/mL (≈ 5.48 µM).
`CC(=O)N1CCN(c2ccc(OCC3COC(Cn4ccnc4)(c4ccc(Cl)cc4Cl)O3)cc2)CC1` (stereo not given) [KETOCONAZOLE]: the MIC50 turned out to be 2 µg/mL (≈ 3.76 µM) in [6]; 4 µg/mL (≈ 7.53 µM) in [7]; 1 µg/mL (≈ 1.88 µM) in assay [1]; 1 µg/mL (≈ 1.88 µM) in assay [2]; 2 µg/mL (≈ 3.76 µM) in assay [3]; 0.5 µg/mL (≈ 0.941 µM) in assay [4]. Further, the MIC50 was 4 µg/mL (≈ 7.53 µM) in assay [8], 4 µg/mL (≈ 7.53 µM) in assay [5], > 8 µg/mL in assay [9] and > 8 µg/mL in assay [10].
Turning to `CS(=O)(=O)c1ccc(NC(=O)c2nc(-n3cncn3)c3ccccc3n2)cc1`, the MIC50 in assay [1] is 2 µg/mL (≈ 5.07 µM); in assay [2] it was 2 µg/mL (≈ 5.07 µM); in [3], 1 µg/mL (≈ 2.54 µM); in assay [4], 2 µg/mL (≈ 5.07 µM); in assay [5], 4 µg/mL (≈ 10.1 µM).
Consider `COc1ccc(C(=O)N2CCC(NC(=O)c3nc(-n4ccnc4)c4ccccc4n3)CC2)cc1`, for which the MIC50 in assay [1] worked out at 2 µg/mL (≈ 4.38 µM); in assay [2], 1 µg/mL (≈ 2.19 µM); in [3] it was 2 µg/mL (≈ 4.38 µM); in [4] it was 1 µg/mL (≈ 2.19 µM); in assay [5], 4 µg/mL (≈ 8.76 µM).
On to `O=C(NCc1ccccc1)c1nc(-n2ccnc2)c2cc(Cl)ccc2n1`, for which the MIC50 is 1 µg/mL (≈ 2.75 µM) in assay [1]; 4 µg/mL (≈ 11 µM) in assay [2]; 2 µg/mL (≈ 5.5 µM) in assay [3]; 2 µg/mL (≈ 5.5 µM) in [4]; 4 µg/mL (≈ 11 µM) in [5].
With `O=C(NC1CCCc2ccccc21)c1nc(-n2cncn2)c2ccccc2n1` (stereo not given), the MIC50 in [1] is 2 µg/mL (≈ 5.4 µM); in assay [2] it was 4 µg/mL (≈ 10.8 µM); in [3], 2 µg/mL (≈ 5.4 µM); in assay [4] it was 1 µg/mL (≈ 2.7 µM); in assay [5] it was > 8 µg/mL.
On to `CC(=O)c1ccc(C(=O)N2CCC(NC(=O)c3nc(-n4ccnc4)c4ccccc4n3)CC2)cc1`, for which the MIC50 came to 1 µg/mL (≈ 2.13 µM) in assay [1]; 2 µg/mL (≈ 4.27 µM) in assay [2]; 2 µg/mL (≈ 4.27 µM) in [3]; 0.5 µg/mL (≈ 1.07 µM) in assay [4]; 4 µg/mL (≈ 8.54 µM) in [5].
As for `CS(=O)(=O)c1ccc(NC(=O)c2nc(-n3cncn3)c3cc(Cl)ccc3n2)cc1`, the MIC50 in [1] amounted to 1 µg/mL (≈ 2.33 µM); in assay [2], 0.5 µg/mL (≈ 1.17 µM); in assay [3] it was 0.5 µg/mL (≈ 1.17 µM); in assay [4], 1 µg/mL (≈ 2.33 µM); in assay [5], 2 µg/mL (≈ 4.66 µM).
Consider `CC(=O)c1ccc(NC(=O)c2nc(-n3cncn3)c3ccccc3n2)cc1`, for which the MIC50 is 1 µg/mL (≈ 2.79 µM) in [1]; 0.5 µg/mL (≈ 1.4 µM) in assay [2]; 0.5 µg/mL (≈ 1.4 µM) in assay [3]; 0.5 µg/mL (≈ 1.4 µM) in assay [4]; 2 µg/mL (≈ 5.58 µM) in assay [5].
As to `O=C(NC1CCN(C(=O)c2ccccc2)CC1)c1nc(-n2ccnc2)c2ccccc2n1`, the MIC50 is 2 µg/mL (≈ 4.69 µM) in assay [1]; 2 µg/mL (≈ 4.69 µM) in [2]; 1 µg/mL (≈ 2.34 µM) in assay [3]; 1 µg/mL (≈ 2.34 µM) in assay [4]; > 8 µg/mL in assay [5].
On to `O=C(NC1CCCc2ccccc21)c1nc(-n2cncn2)c2cc(Cl)ccc2n1` (stereo not given), for which the MIC50 in assay [1] was > 8 µg/mL; in assay [2], 2 µg/mL (≈ 4.94 µM); in assay [3], 2 µg/mL (≈ 4.94 µM); in assay [4] it was 2 µg/mL (≈ 4.94 µM); in assay [5] it was > 8 µg/mL.
For `CC(=O)c1ccc(NC(=O)c2nc(-n3ccnc3)c3cc(Cl)ccc3n2)cc1`, the MIC50 is 4 µg/mL (≈ 10.2 µM) in assay [1]; 2 µg/mL (≈ 5.1 µM) in [2]; 1 µg/mL (≈ 2.55 µM) in assay [3]; 1 µg/mL (≈ 2.55 µM) in [4]; > 8 µg/mL in assay [5].
`CC(C)c1ccc(C(=O)N2CCC(NC(=O)c3nc(-n4cncn4)c4ccccc4n3)CC2)cc1`: the MIC50 in assay [1] was determined as 0.5 µg/mL (≈ 1.06 µM); in assay [2], 2 µg/mL (≈ 4.26 µM); in assay [3], 0.5 µg/mL (≈ 1.06 µM); in assay [4] it was 1 µg/mL (≈ 2.13 µM); in assay [5], 4 µg/mL (≈ 8.52 µM).
On to `O=C(NC1CCCc2ccccc21)c1nc(-n2ccnc2)c2ccccc2n1` (stereo not given), for which the MIC50 in [1] turned out to be 2 µg/mL (≈ 5.41 µM); in assay [2], 2 µg/mL (≈ 5.41 µM); in assay [3], 4 µg/mL (≈ 10.8 µM); in assay [4], 4 µg/mL (≈ 10.8 µM); in assay [5], 4 µg/mL (≈ 10.8 µM).
Turning to `O=C(NC1CCCc2ccccc21)c1nc(-n2ccnc2)c2cc(Cl)ccc2n1` (stereo not given), the MIC50 in assay [1] was 4 µg/mL (≈ 9.9 µM); in assay [2], 2 µg/mL (≈ 4.95 µM); in [3] it was > 8 µg/mL; in [4], 4 µg/mL (≈ 9.9 µM); in assay [5], > 8 µg/mL.
With `CS(=O)(=O)c1ccc(NC(=O)c2nc(-n3ccnc3)c3ccccc3n2)cc1`, the MIC50 in [1] is 4 µg/mL (≈ 10.2 µM); in assay [2], 1 µg/mL (≈ 2.54 µM); in [3], 2 µg/mL (≈ 5.08 µM); in [4], 4 µg/mL (≈ 10.2 µM); in assay [5], > 8 µg/mL.
Take `CC(=O)c1ccc(NC(=O)c2nc(-n3cncn3)c3cc(Cl)ccc3n2)cc1`: the MIC50 in assay [1] was found to be 1 µg/mL (≈ 2.55 µM); in [2], 2 µg/mL (≈ 5.09 µM); in [3] it was 0.5 µg/mL (≈ 1.27 µM); in [4] it was 0.5 µg/mL (≈ 1.27 µM); in [5], 4 µg/mL (≈ 10.2 µM).
Take `COc1ccc(C(=O)N2CCC(NC(=O)c3nc(-n4cncn4)c4ccccc4n3)CC2)cc1`: the MIC50 in assay [1] is 0.5 µg/mL (≈ 1.09 µM); in assay [2], 1 µg/mL (≈ 2.19 µM); in assay [3], 0.5 µg/mL (≈ 1.09 µM); in assay [4] it was 0.5 µg/mL (≈ 1.09 µM); in [5], 2 µg/mL (≈ 4.37 µM).
In the case of `O=C(NC1CCN(C(=O)c2ccccc2)CC1)c1nc(-n2cncn2)c2ccccc2n1`, the MIC50 in [1] worked out at 1 µg/mL (≈ 2.34 µM); in [2] it was 2 µg/mL (≈ 4.68 µM); in assay [3], 1 µg/mL (≈ 2.34 µM); in [4] it was 1 µg/mL (≈ 2.34 µM); in [5], 4 µg/mL (≈ 9.36 µM).
For `O=C(NCc1ccccc1)c1nc(-n2cncn2)c2ccccc2n1`, the MIC50 was 4 µg/mL (≈ 12.1 µM) in [1]; 2 µg/mL (≈ 6.05 µM) in assay [2]; 2 µg/mL (≈ 6.05 µM) in assay [3]; 1 µg/mL (≈ 3.03 µM) in assay [4]; > 8 µg/mL in assay [5].
Regarding `CS(=O)(=O)c1ccc(NC(=O)c2nc(-n3ccnc3)c3cc(Cl)ccc3n2)cc1`, the MIC50 in assay [1] came to 2 µg/mL (≈ 4.67 µM); in assay [2], 0.5 µg/mL (≈ 1.17 µM); in [3], 1 µg/mL (≈ 2.34 µM); in assay [4], 2 µg/mL (≈ 4.67 µM); in [5], 4 µg/mL (≈ 9.35 µM).
Consider `O=C(NCc1ccccc1)c1nc(-n2ccnc2)c2ccccc2n1`, for which the MIC50 in assay [1] is 1 µg/mL (≈ 3.04 µM); in assay [2] it was 4 µg/mL (≈ 12.1 µM); in [3], 2 µg/mL (≈ 6.07 µM); in assay [4] it was 2 µg/mL (≈ 6.07 µM); in assay [5], > 8 µg/mL.
